Measurements reported in ChEMBL document CHEMBL1201862, “PubChem BioAssay data set” (2004).
Calls of active or inactive are those of the source.

Key:
[1] = molecular target: Cytochrome P450 3A4 (Homo sapiens, UniProt P08684); conditions: Potency;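 note: confirmatory qHTS run detecting inhibitors and substrates of CYP3A4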
[2] = A cytotoxicity screen of small molecule inhibitors of the PhoP region in Salmonella typhi identified in the primary screen. [Related pubchem assays: 1850, 1864, 1985 ]; type: functional
[3] = molecular target: Eukaryotic translation initiation factor 4E (Mus musculus, UniProt P63073); test: eIF4E–eIF4G protein interaction inhibitors, dose response, biochemical, TR-FRET (AID 855); type: functional;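 note: potency for disrupting eIF4E binding to eIF4GI seen as loss of FRET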
[4] = molecular target: T1, Carboxy-terminal domain RNA polymerase II polypeptide A small phosphatase 1 (Homo sapiens, UniProt Q9GZU7); test: inhibitors of CTDSP1, concentration-response testing, biochemical assay, absorbance-based, actives from ultra-high-throughput screening (AID 540297); type: functional
T1 sequence (Q9GZU7 whole entry): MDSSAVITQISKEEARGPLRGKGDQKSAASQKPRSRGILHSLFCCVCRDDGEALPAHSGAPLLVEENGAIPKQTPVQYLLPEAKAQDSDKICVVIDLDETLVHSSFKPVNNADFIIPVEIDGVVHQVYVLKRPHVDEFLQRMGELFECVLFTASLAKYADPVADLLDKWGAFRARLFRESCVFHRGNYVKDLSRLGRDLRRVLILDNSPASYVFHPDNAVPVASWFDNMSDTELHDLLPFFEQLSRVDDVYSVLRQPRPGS

[5] = molecular target: Kallikrein-7 (Homo sapiens, UniProt P49862); test: Fluorescence Intensity-based biochemical primary high throughput dose response assay to identify activators of kallikrein-7 (K7) zymogen.
[6] = molecular target: T2, Short transient receptor potential channel 4 (Mus musculus, UniProt Q9QUQ5); test: mouse TRPC4 channel activators, dose response, cell-based, HEK293 TRPC4/mu-opioid, Fluo-4 calcium (AID 434937); type: functional
T2 sequence (Q9QUQ5 whole entry): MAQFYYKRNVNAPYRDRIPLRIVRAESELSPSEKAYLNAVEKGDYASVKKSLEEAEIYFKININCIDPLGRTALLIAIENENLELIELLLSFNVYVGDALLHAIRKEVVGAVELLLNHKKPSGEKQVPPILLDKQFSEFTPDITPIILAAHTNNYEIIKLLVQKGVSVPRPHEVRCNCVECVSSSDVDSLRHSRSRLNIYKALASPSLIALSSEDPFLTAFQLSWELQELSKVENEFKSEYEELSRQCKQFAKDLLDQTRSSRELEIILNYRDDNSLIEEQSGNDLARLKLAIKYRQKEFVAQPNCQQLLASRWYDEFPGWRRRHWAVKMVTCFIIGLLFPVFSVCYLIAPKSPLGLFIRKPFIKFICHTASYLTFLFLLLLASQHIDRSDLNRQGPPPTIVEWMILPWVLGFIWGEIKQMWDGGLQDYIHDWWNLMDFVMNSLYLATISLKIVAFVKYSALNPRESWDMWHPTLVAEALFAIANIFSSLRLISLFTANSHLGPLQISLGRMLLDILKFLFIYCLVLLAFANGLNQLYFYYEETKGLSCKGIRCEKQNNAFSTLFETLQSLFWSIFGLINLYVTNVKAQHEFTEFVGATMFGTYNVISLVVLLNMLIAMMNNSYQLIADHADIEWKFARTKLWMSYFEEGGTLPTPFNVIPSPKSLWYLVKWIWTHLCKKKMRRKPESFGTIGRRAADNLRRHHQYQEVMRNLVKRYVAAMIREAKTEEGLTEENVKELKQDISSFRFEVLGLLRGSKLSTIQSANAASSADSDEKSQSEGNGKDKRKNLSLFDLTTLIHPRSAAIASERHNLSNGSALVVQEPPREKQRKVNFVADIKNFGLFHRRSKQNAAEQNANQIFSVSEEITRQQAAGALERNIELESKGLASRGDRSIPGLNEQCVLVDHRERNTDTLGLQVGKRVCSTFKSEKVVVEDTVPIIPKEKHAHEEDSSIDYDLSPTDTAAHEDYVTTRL

[7] = molecular target: T3, Cytochrome P450 2C9 (Homo sapiens, UniProt P11712)
[8] = molecular target: Cytochrome P450 2C19 (Homo sapiens, UniProt P33261); test: Cytochrome panel assay with activity outcomes. Panel member name: p450-cyp2c19 Compounds with AC50 equal or less than 10 uM are considered active; type: functional
[9] = molecular target: T3, Cytochrome P450 2C9; remark: listed apart in the source
[10] = molecular target: Cytochrome P450 2D6 (Homo sapiens, UniProt P10635);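 note: CYP2D6 member of a cytochrome P450 panel assay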
[11] = molecular target: T2, Short transient receptor potential channel 4; test: mouse TRPC4 channel inhibitors, dose response, cell-based, HEK293 TRPC4/mu-opioid, Fluo-4 calcium (AID 434942); type: functional;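 note: potency of inhibitors blocking the TRPC4 calcium response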
[12] = microbe, parasite or virus in culture; type: functional; conditions: Mycobacterium tuberculosis
[13] = growth suppression of PTEN-null colon cells, dose response, cell-based, HCT116 PTEN knockout (AID 1047); type: functional;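 note: HCT116 colon tumor cells with PTEN knocked out; cells exposed to compound for 60 hours before readout; potency for loss of cell viability measured by luminescence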
[14] = growth suppression of beta-catenin-knockout colon cells, dose response, cell-based, HCT116, human colon tumor (AID 1045); type: functional;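 note: HCT116 colon tumor cells with beta catenin knocked out; cells exposed to compound for 60 hours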
[15] = tested on: BJ; test: cytotoxicity toward Ras-transformed BJeLR fibroblasts, dose response, cell-based, alamar blue fluorescence, cherrypicked samples (AID 2631); type: functional; conditions: Homo sapiens;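 note: confirmatory dose-response assay in RAS-dependent BJ fibroblasts engineered with TERT, LT and ST, with cytotoxicity read by fluorescence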
[16] = tested on: INS1; test: beta cell apoptosis inhibitors, cytokine rescue, dose response, luminescence, retest (AID 449756); type: functional, cell-based; conditions: Rattus norvegicus;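 note: cell death triggered by IL-1 beta plus TNF-alpha plus IFN-gamma mixture; protective hits raise ATP signal compared with cytokine alone wells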

Chain of Eukaryotic translation initiation factor 4E (P63073 whole entry, the tested form may be a part): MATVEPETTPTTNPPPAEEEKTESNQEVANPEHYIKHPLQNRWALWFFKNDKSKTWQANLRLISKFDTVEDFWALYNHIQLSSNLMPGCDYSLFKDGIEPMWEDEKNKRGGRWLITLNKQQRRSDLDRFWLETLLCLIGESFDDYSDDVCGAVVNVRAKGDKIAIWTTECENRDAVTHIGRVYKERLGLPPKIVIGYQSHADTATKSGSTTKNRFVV
Chain of Cytochrome P450 3A4 (P08684 whole entry): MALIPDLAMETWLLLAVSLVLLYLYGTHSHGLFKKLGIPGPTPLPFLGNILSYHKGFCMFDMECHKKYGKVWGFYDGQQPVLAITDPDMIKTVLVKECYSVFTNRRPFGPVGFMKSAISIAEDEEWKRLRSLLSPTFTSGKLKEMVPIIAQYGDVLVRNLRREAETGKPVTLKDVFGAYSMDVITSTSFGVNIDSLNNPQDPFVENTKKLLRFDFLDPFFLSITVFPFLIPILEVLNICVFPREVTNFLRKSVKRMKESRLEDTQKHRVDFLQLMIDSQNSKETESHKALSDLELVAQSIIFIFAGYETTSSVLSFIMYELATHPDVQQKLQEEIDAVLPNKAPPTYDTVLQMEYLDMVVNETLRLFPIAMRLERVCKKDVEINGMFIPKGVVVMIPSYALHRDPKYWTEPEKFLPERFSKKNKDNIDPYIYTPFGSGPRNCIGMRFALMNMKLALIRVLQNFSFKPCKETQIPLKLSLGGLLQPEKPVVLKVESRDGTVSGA
Chain of Cytochrome P450 2D6 (P10635 whole entry): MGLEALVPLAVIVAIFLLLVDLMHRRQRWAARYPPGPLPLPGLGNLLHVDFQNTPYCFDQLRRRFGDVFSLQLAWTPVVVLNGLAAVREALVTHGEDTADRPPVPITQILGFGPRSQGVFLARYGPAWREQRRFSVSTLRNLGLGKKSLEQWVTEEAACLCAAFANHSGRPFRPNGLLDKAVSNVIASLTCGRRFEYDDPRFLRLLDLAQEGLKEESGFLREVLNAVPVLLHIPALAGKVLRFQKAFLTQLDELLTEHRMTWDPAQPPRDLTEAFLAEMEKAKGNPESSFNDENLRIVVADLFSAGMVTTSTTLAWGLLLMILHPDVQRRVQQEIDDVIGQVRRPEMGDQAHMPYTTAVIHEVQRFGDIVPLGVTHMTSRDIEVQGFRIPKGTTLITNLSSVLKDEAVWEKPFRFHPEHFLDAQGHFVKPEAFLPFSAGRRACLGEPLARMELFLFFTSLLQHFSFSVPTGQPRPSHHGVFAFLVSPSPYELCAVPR
T3 sequence (P11712 whole entry): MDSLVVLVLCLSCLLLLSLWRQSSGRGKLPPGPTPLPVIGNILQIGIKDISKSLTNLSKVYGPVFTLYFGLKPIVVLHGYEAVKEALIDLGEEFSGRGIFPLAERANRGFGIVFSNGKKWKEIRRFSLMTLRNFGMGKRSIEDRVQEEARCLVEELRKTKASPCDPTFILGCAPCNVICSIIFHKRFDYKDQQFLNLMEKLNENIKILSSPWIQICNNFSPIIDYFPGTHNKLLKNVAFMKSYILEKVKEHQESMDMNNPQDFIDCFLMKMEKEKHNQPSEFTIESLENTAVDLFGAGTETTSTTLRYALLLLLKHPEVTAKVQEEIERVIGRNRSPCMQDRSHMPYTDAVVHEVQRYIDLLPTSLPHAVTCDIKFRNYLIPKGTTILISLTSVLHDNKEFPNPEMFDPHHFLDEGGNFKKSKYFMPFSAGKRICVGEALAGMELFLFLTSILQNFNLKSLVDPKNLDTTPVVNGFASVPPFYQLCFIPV
Chain of Kallikrein-7 (P49862 whole entry): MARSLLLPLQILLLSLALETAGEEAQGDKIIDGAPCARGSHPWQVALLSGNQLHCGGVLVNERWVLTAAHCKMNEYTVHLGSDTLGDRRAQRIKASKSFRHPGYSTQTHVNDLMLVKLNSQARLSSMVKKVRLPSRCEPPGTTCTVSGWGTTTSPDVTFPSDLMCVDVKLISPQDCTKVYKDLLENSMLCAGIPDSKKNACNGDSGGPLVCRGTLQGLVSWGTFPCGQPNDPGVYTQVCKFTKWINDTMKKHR
Chain of Cytochrome P450 2C19 (P33261 whole entry): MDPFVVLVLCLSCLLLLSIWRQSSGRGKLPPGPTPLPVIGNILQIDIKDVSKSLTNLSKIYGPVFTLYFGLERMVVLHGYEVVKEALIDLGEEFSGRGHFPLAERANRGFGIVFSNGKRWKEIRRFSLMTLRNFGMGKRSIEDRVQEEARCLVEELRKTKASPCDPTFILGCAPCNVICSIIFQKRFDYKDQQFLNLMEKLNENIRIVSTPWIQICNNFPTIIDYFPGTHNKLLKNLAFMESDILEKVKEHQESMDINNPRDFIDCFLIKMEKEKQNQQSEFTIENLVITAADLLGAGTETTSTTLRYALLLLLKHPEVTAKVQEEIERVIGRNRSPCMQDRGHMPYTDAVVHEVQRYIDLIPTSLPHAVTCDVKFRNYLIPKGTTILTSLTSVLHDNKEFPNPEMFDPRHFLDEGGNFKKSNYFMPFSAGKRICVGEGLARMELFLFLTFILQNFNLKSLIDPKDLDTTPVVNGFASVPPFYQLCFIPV

CC(=O)OC1CC2C(C)(C)C(O)C=C[C@@]2(C)C2CC[C@]3(C)C(=CC(=O)OC3c3ccoc3)[C@]12C (some centres undefined)
AC50 [1]: 15.8 µM (inconclusive)

C=CCN=C=S [ALLYL ISOTHIOCYANATE]
AC50 [1]: 39.8 µM (inconclusive)

Cc1cc2ccccc2c(=O)n1CC(=O)NCCC1=CCCCC1
EC50 [2]: > 50 µM (active)

COc1cc(C(=O)NNC(=O)C2CC=CCC2C(=O)O)cc(OC)c1OC (centres undefined)
IC50 [3]: > 64 µM (inactive)

O=C(NC1CCC(O)CC1)c1cc(-c2ccco2)nc2ccccc12 (centres undefined)
IC50 [3]: 50 µM (inactive) | IC50 [4]: 5.9 µM (active) | EC50 [5]: > 69.5 µM (inactive)

CCNc1cc(O)ccc1C
AC50 [1]: 25.1 µM (inconclusive)

O=C(CCCc1ccccc1)NCCc1cnc[nH]1
EC50 [6]: 5.31 µM (active)

CCc1nnc(NC(=O)Cn2nc(-c3ccccc3OC)ccc2=O)s1
IC50 [3]: > 64 µM (inactive)

Cc1noc(C)c1-c1cc(N2CCN(C)CC2)ncn1
AC50 [7]: inconclusive

O=C(Cn1cnc2ccccc21)Nc1ccc(SC(F)F)cc1
EC50 [2]: > 50 µM (active)

COc1ccc(-c2nc(NC(=O)c3ccccc3)sc2-c2ccc([N+](=O)[O-])cc2)cc1
AC50 ([8]; read-out: AC50): 1.26 µM (inconclusive) | AC50 [9]: 2.82 µM (inconclusive) | AC50 [10]: inconclusive

O=C(Nc1ccc2c(c1)OCCO2)C1CCN(C(=O)c2ccccc2)CC1
AC50 [10]: inconclusive

COCCNc1ncncc1-c1c(C)noc1C
AC50 [7]: inconclusive

O=C(O)CSSCC(=O)O
AC50 [8]: inconclusive | AC50 [10]: inconclusive

COc1ccc(Cl)cc1NC(=O)CNCC(c1ccccc1)N(C)C (centres undefined)
EC50 [11]: 0.421 µM (active) | EC50 [6]: 1.06 µM (active)

O=C(C[n+]1ccccc1)c1ccc(-c2ccccc2)cc1
EC50 [2]: > 50 µM (active)

C[C@@H](NCc1cc(Br)cc2[nH]c(=O)c(=O)[nH]c12)P(=O)(O)O
AC50 [7]: inconclusive

COc1ccc(/C=C/C(O)=C2/C(=O)NC3(C)CC2c2ccccc2O3)c(OC)c1OC (centres undefined)
EC50 [5]: > 69.6 µM (inactive)

CCc1ccc(-c2nn(-c3ccccc3)cc2CSC(=N)N)cc1
CC50 [12]: 13.7 µM (active) | EC50 [13]: 9.61 µM (active) | EC50 [14]: 11.2 µM (active) | EC50 [15]: > 133 µM (inactive) | AC50 [16]: 8.15 µM (active)
